Measurements from patent US12590091B2, “1H-pyrrolo[3,2-C]pyridine and 1H-pyrrolo[2,3-C]pyridine derivatives as TLR9 inhibitors for the treatment of fibrosis” (BRISTOL-MYERS SQUIBB COMPANY, priority 2020, dated 2026).

Target: T1, human TLR9 (Homo sapiens, UniProt Q9NR96)
T1 construct: host or cells: HEK-Blue cells
T1 sequence (Q9NR96 26-1032): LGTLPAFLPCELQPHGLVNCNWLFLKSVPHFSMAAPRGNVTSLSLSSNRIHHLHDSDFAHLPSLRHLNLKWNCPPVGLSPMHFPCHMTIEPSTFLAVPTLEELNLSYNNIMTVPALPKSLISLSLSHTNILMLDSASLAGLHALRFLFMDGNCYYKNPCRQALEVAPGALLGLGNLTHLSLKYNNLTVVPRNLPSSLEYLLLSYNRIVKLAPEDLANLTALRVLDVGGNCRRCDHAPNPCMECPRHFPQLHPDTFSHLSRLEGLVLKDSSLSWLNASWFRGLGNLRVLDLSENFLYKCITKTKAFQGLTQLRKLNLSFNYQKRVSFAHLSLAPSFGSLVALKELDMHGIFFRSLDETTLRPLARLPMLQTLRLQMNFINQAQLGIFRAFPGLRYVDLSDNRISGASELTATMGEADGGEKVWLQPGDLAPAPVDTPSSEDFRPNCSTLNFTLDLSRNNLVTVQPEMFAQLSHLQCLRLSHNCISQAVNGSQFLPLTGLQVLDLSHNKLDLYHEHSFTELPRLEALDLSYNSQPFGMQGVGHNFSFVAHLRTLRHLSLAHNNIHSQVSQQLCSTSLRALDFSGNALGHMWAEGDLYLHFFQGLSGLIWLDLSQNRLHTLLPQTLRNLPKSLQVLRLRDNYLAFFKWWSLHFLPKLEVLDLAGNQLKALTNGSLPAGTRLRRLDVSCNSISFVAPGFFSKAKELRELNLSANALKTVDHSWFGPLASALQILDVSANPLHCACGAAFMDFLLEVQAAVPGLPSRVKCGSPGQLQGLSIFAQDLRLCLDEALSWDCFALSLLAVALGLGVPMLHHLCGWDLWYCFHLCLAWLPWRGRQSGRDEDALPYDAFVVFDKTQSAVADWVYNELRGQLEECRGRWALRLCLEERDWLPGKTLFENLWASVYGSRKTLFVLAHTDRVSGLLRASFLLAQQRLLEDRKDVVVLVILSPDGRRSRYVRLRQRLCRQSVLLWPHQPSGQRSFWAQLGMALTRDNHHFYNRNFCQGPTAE
Assay: TLR9 inhibition reporter assay (HEK-Blue cells, SEAP reporter)
Type: cell-based
Details: HEK-Blue cells overexpressing human TLR9, stimulated with ODN2006 5 nM, 22 hour incubation
Procedure: TLR7/8/9 Inhibition Reporter Assays
HEK-Blue™-cells (Invivogen) overexpressing human TLR7, TLR8 or TLR9 receptors were used for screening inhibitors of these receptors using an inducible SEAP (secreted embryonic alkaline phosphatase) reporter gene under the control of the IFN-β minimal promoter fused to five NF-κB and AP-1-binding sites. Briefly, cells are seeded into Greiner 384 well plates (15000 cells per well for TLR7, 20,000 for TLR8 and 25,000 for TLR9) and then treated with test compounds in DMSO to yield a final dose response concentration range of 0.05 nM-50 μM. […] After a 22 hour incubation at 37° C., 5% CO2, SEAP levels are determined with the addition of HEK-Blue™ Detection reagent (Invivogen), a cell culture medium that allows for detection of SEAP, according to manufacturer's specifications. The percent inhibition is determined as the % reduction in the HEK-Blue signal present in wells treated with agonist plus DMSO alone compared to wells treated with a known inhibitor.

Compound | IC50
COc1ccc(-c2cc3cnc(-c4ccc(N5CCN(C(C)=O)CC5)cc4)cc3n2C)cc1OC [Example 30, 1-(4-(4-(2-(3,4-dimethoxyphenyl)-1-methyl-1H-pyrrolo[3,2-c]pyridin-6-yl)phenyl)piperazin-1-yl) ethan-1-one] | 579 nM
Cc1nc(-c2ccc(N3CCN(C(C)C)CC3)cc2)cc2c1cc(-c1cccc(S(C)(=O)=O)c1)n2C [Example 39, 6-(4-(4-isopropylpiperazin-1-yl)phenyl)-1,4-dimethyl-2-(3-(methylsulfonyl)phenyl)-1H-pyrrolo[3,2-c]pyridine] | 672 nM
Cc1nc(-c2ccc(N3CCN(C(C)C)CC3)cc2)cc2c1cc(-c1ccc(S(=O)(=O)C3CC3)cc1)n2C [Example 42, 2-(4-(Cyclopropylsulfonyl)phenyl)-6-(4-(4-isopropylpiperazin-1-yl)phenyl)-1,4-dimethyl-1H-pyrrolo[3,2-c]pyridine] | 346 nM
Cc1nc(-c2ccc(N3CCN(CC(C)C)CC3)cc2)cc2c1cc(-c1ccc(S(=O)(=O)C3CC3)cc1)n2C [Example 46, 2-(4-(cyclopropylsulfonyl)phenyl)-6-(4-(4-isobutylpiperazin-1-yl)phenyl)-1,4-dimethyl-1H-pyrrolo[3,2-c]pyridine] | 213 nM
Cc1nc(-c2ccc(N3CCN(C(C)C)CC3)cc2)cc2c1cc(-c1ccc(S(=O)(=O)N(C)C)cc1)n2C [Example 49, 4-(6-(4-(4-isopropylpiperazin-1-yl)phenyl)-1,4-dimethyl-1H-pyrrolo[3,2-c]pyridin-2-yl)-N,N-dimethylbenzenesulfonamide] | 6760 nM
Cc1nc(-c2ccc(N3CCN(C4COC4)CC3)cc2)cc2c1cc(-c1ccc(S(=O)(=O)N(C)C)cc1)n2C [Example 50, 4-(1,4-dimethyl-6-(4-(4-(oxetan-3-yl)piperazin-1-yl)phenyl)-1H-pyrrolo[3,2-c]pyridin-2-yl)-N,N-dimethylbenzenesulfonamide] | 2410 nM
Cc1nc(-c2ccc(N3CCN(C4CCOC4)CC3)cc2)cc2c1cc(-c1ccc(S(=O)(=O)N(C)C)cc1)n2C (stereo not drawn) [Example 52, 4-(1,4-dimethyl-6-(4-(4-(tetrahydrofuran-3-yl)piperazin-1-yl)phenyl)-1H-pyrrolo[3,2-c]pyridin-2-yl)-N,N-dimethylbenzenesulfonamide] | 202 nM
Cc1nc(-c2ccc(N3CCN4CCCC4C3)cc2)cc2c1cc(-c1ccc(S(C)(=O)=O)cc1)n2C (stereo not drawn) [Example 63, 6-(4-(hexahydropyrrolo[1,2-a]pyrazin-2(1H)-yl)phenyl)-1,4-dimethyl-2-(4-(methylsulfonyl)phenyl)-1H-pyrrolo[3,2-c]pyridine] | 146 nM
COCCN1CCN(c2ccc(-c3cc4c(cc(-c5ccc(S(C)(=O)=O)cc5)n4C)c(C)n3)cc2F)CC1 [Example 66, 6-(3-fluoro-4-(4-(2-methoxyethyl)piperazin-1-yl)phenyl)-1,4-dimethyl-2-(4-(methylsulfonyl)phenyl)-1H-pyrrolo[3,2-c]pyridine] | 136 nM
Cc1nc(-c2cccc(N3CCN(C4CC4)CC3)c2)cc2c1cc(-c1ccc(S(C)(=O)=O)cc1)n2C [Example 68, 6-(3-(4-cyclopropylpiperazin-1-yl)phenyl)-1,4-dimethyl-2-(4-(methylsulfonyl)phenyl)-1H-pyrrolo[3,2-c]pyridine] | 299 nM
Cc1nc(-c2ccc(N3CCN(CC(C)C)CC3)c(F)c2)cc2c1cc(-c1ccc(S(C)(=O)=O)cc1)n2C [Example 72, 6-(3-fluoro-4-(4-isobutylpiperazin-1-yl)phenyl)-1,4-dimethyl-2-(4-(methylsulfonyl)phenyl)-1H-pyrrolo[3,2-c]pyridine] | 411 nM
Cc1nc(-c2ccc(N3CC4CCC(C3)N4CC(C)C)cc2)cc2c1cc(-c1ccc(S(C)(=O)=O)cc1)n2C [Example 73, 6-(4-(8-isobutyl-3,8-diazabicyclo[3.2.1]octan-3-yl)phenyl)-1,4-dimethyl-2-(4-(methylsulfonyl)phenyl)-1H-pyrrolo[3,2-c]pyridine] | 359 nM
Cc1nc(-c2cc(F)c(N3CCN(C4CCOCC4)CC3)cc2F)cc2c1cc(-c1ccc(S(C)(=O)=O)cc1)n2C [Example 81, 6-(2,5-difluoro-4-(4-(tetrahydro-2H-pyran-4-yl)piperazin-1-yl)phenyl)-1,4-dimethyl-2-(4-(methylsulfonyl)phenyl)-1H-pyrrolo[3,2-c]pyridine] | 670 nM
Cc1nc(-c2ccc(N3CCN(C4CCOCC4)CC3)c(F)c2F)cc2c1cc(-c1ccc(S(C)(=O)=O)cc1)n2C [Example 83, 6-(2,3-difluoro-4-(4-(tetrahydro-2H-pyran-4-yl)piperazin-1-yl)phenyl)-1,4-dimethyl-2-(4-(methylsulfonyl)phenyl)-1H-pyrrolo[3,2-c]pyridine] | 2300 nM
Cc1nc(-c2cc(F)c(N3CCN(CC(C)C)CC3)c(F)c2)cc2c1cc(-c1ccc(S(C)(=O)=O)cc1)n2C [Example 84, 6-(3,5-difluoro-4-(4-isobutylpiperazin-1-yl)phenyl)-1,4-dimethyl-2-(4-(methylsulfonyl)phenyl)-1H-pyrrolo[3,2-c]pyridine] | 626 nM
Cc1nc(-c2ccc(N3CCS(=O)(=O)CC3)cc2)cc2c1cc(-c1ccc(S(C)(=O)=O)cc1)n2C [Example 85, 4-(4-(1,4-dimethyl-2-(4-(methylsulfonyl)phenyl)-1H-pyrrolo[3,2-c]pyridin-6-yl)phenyl)thiomorpholine 1,1-dioxide] | 2400 nM

The next lines start with the values.

IC50 | Compound
36 nM | Cc1nc(-c2ccc(N3CCN(C(C)C)CC3)c(F)c2)cc2c1cc(-c1ccc(S(C)(=O)=O)cc1)n2C [Example 12, 6-(3-Fluoro-4-(4-isopropylpiperazin-1-yl)phenyl)-1,4-dimethyl-2-(4-(methylsulfonyl)phenyl)-1H-pyrrolo[3,2-c]pyridine]
98 nM | Cc1nc(-c2ccc(N3CCN(CC(C)C)CC3)cc2)cc2c1cc(-c1cccc(S(C)(=O)=O)c1)n2C [Example 40, 6-(4-(4-isobutylpiperazin-1-yl)phenyl)-1,4-dimethyl-2-(3-(methylsulfonyl)phenyl)-1H-pyrrolo[3,2-c]pyridine]
44 nM | COCCN1CCN(c2ccc(-c3cc4c(cc(-c5ccc(S(=O)(=O)N(C)C)cc5)n4C)c(C)n3)cc2)CC1 [Example 51, 4-(6-(4-(4-(2-methoxyethyl)piperazin-1-yl)phenyl)-1,4-dimethyl-1H-pyrrolo[3,2-c]pyridin-2-yl)-N,N-dimethylbenzenesulfonamide]
105 nM | Cc1nc(-c2ccc(N3CCN(C4CC4)CC3)cc2)cc2c1cc(-c1ccc(S(C)(=O)=O)cc1)n2C [Example 62, 6-(4-(4-cyclopropylpiperazin-1-yl)phenyl)-1,4-dimethyl-2-(4-(methylsulfonyl)phenyl)-1H-pyrrolo[3,2-c]pyridine]
6.4 nM | Cc1nc(-c2ccc(N3CC4CCC(C3)N4C(C)C)cc2)cc2c1cc(-c1ccc(S(C)(=O)=O)cc1)n2C [Example 64, 6-(4-(8-isopropyl-3,8-diazabicyclo[3.2.1]octan-3-yl)phenyl)-1,4-dimethyl-2-(4-(methylsulfonyl)phenyl)-1H-pyrrolo[3,2-c]pyridine]
136 nM | Cc1nc(-c2ccc(N3CCN4CCCC4C3)c(F)c2)cc2c1cc(-c1ccc(S(C)(=O)=O)cc1)n2C (stereo not drawn) [Example 65, 6-(3-fluoro-4-(hexahydropyrrolo[1,2-a]pyrazin-2(1H)-yl)phenyl)-1,4-dimethyl-2-(4-(methylsulfonyl)phenyl)-1H-pyrrolo[3,2-c]pyridine]
25 nM | Cc1nc(-c2cccc(N3CCN(C(C)C)CC3)c2)cc2c1cc(-c1ccc(S(C)(=O)=O)cc1)n2C [Example 67, 6-(3-(4-isopropylpiperazin-1-yl)phenyl)-1,4-dimethyl-2-(4-(methylsulfonyl)phenyl)-1H-pyrrolo[3,2-c]pyridine]
3 nM | Cc1nc(-c2ccc(N3CCN(C4CCOCC4)CC3)c(F)c2)cc2c1cc(-c1ccc(S(C)(=O)=O)cc1)n2C [Example 71, 6-(3-fluoro-4-(4-(tetrahydro-2H-pyran-4-yl)piperazin-1-yl)phenyl)-1,4-dimethyl-2-(4-(methylsulfonyl)phenyl)-1H-pyrrolo[3,2-c]pyridine]
